Consider 13 compounds from US11339130B1 (Blade Therapeutics, Inc., priority 2016, dated 2022).

The target in one assay is T1, Human Calpain 2/NS1 (Homo sapiens, UniProt P17655).
T1 sequence (P17655 1-700): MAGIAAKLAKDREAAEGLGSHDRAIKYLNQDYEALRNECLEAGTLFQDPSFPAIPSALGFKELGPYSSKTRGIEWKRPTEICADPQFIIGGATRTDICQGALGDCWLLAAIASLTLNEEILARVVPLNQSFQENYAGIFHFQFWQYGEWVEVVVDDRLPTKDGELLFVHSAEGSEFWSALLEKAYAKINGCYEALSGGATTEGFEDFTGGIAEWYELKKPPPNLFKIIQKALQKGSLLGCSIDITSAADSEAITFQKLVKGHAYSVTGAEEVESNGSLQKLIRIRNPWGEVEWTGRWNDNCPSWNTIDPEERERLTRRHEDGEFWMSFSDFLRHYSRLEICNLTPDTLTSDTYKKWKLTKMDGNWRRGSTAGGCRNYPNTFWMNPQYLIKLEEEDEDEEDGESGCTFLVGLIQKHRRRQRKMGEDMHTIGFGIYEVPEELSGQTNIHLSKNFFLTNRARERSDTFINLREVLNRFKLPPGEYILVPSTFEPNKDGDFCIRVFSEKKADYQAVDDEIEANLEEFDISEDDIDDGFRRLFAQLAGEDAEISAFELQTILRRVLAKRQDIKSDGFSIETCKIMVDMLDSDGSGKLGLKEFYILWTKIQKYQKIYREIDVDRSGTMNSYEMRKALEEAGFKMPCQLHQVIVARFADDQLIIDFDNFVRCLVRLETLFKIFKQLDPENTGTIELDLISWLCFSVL
T1 sequence (P04632 1-268 partner): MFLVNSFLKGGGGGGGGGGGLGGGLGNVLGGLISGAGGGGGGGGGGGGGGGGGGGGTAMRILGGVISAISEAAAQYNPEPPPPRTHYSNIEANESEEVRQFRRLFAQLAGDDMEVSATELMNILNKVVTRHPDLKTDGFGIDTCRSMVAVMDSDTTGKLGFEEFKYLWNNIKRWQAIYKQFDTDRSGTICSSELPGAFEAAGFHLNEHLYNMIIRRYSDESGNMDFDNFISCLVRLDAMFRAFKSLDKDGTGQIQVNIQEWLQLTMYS
The assay is described as follows: Calpain inhibition continuous fluorescence (FRET) assay, Human Calpain 2/NS1. Format: biochemical. Conditions: read-out: Human Calpain 2/NS1 IC50. Summed up:
(§1)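 Calpain activity is measured kinetically with a quenched FRET peptide in 50 mM Tris pH 7.5, 100 mM NaCl, 1 mM DTT, with CaCl2 triggering activation. Rates over 1-5 min are plotted against log inhibitor to obtain IC50 by 4-parameter logistic fitting.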

A further assay concerns the target T2, Human Calpain 9/NS1 (Homo sapiens, UniProt O14815).
T2 sequence (O14815 1-690): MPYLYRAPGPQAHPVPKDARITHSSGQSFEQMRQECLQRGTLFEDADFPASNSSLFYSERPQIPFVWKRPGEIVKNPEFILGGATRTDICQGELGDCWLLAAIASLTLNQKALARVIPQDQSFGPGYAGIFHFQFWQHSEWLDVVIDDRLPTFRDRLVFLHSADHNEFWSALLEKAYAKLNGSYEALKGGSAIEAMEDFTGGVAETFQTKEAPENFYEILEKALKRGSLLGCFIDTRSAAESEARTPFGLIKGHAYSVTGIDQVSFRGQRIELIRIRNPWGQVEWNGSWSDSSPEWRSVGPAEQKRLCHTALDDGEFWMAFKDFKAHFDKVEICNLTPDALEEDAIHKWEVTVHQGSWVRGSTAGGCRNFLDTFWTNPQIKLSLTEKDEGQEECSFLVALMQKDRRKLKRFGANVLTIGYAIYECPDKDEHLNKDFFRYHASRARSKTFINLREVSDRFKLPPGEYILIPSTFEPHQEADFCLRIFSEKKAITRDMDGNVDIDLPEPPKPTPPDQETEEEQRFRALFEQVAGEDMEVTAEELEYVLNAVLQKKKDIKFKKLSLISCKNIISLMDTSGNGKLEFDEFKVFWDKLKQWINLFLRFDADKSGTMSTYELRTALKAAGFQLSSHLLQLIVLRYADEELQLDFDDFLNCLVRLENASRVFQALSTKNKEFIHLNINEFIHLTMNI
T2 sequence (P04632 1-268 partner): T1 sequence (P04632 1-268 partner)
As to the kind of experiment: Calpain inhibition continuous fluorescence (FRET) assay, Human Calpain 9/NS1. Format: biochemical. The settings on record: read-out: Human Calpain 9/NS1 IC50. Summed up: as §1

For assay [1], the system named is Calpain activity in SH-SY5Y cells (SBDP-150). The assay is described as follows: SH-SY5Y Spectrin western blot assay (SBDP-150 breakdown product, A23187-induced). Format: cell-based. Conditions: Homo sapiens, SH-SY5Y cells, read-out: SH-SY5Y Spectrin IC50. (In western blotting, separated proteins are transferred to a membrane and probed.)
In assay [2] the test system is Calpain activity in SH-SY5Y cells. The assay is described as follows: SH-SY5Y + AMC fluorescence assay (Suc-LLVY-AMC substrate). Format: cell-based. Conditions: read-out: SH-SY5Y + AMC IC50.
For a further assay, the target named is T3, Human Calpain 1/NS1 (Homo sapiens, UniProt P07384).
T3 sequence (P07384 1-714): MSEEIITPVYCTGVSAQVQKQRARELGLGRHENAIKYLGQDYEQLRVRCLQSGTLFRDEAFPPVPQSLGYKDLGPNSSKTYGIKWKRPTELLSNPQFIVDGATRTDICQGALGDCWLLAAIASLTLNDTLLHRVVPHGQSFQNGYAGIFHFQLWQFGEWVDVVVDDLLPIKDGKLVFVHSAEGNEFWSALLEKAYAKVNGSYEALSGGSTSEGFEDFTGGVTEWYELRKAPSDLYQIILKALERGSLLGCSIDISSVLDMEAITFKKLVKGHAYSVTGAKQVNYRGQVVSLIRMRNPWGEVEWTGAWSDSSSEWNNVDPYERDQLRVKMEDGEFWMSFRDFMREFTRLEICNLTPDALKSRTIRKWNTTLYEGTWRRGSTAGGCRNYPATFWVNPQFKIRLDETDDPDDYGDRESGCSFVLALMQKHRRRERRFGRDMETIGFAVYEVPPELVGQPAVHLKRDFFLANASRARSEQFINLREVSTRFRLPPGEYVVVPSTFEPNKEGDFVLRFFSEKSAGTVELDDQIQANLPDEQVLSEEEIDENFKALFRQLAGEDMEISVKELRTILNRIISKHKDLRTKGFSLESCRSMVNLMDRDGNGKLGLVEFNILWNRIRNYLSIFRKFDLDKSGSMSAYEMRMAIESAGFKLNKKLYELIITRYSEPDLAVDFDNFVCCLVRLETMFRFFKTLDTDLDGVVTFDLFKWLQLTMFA
T3 sequence (P04632 1-268 partner): T1 sequence (P04632 1-268 partner)
The assay is described as follows: Calpain inhibition continuous fluorescence (FRET) assay, Human Calpain 1/NS1. Format: biochemical. The settings on record: read-out: Human Calpain 1/NS1 IC50. In short, it runs like this:
as §1

The mark [3] stands for this setting: Column D, A23187-induced SBDP-150.
The mark [4] stands for this setting: A23187-induced SBDP-150, western blot.

Counter-ions that a name gives are not always drawn. Like-named read-outs stand apart in the source and are kept apart here. A value given as a limit tells only on which side of the number the result lay.

For the compound `Cc1cc(C(=O)N[C@@H](Cc2ccccc2)C(=O)C(N)=O)n(-c2ccc(CNCc3ccccc3)cc2)n1` [Compound 160, (S)—N-(4-amino-3,4-dioxo-1-phenylbutan-2-yl)-1-(4-((benzylamino)methyl)phenyl)-3-methyl-1H-pyrazole-5-carboxamide hydrochloride], the IC50 on Human Calpain 2/NS1 (Column B) is less than 3 µM; at Human Calpain 9/NS1 (Column C) it was less than 3 µM; in assay [1] (setting [3]), 10 to 25 µM; in assay [2] (Column E), more than 25 µM; on Human Calpain 1/NS1 (Column A), less than 3 µM.
Take `Cc1cc(C(=O)N[C@@H](Cc2ccccc2)C(=O)C(N)=O)n(-c2ccc(-c3ccccc3F)cc2)n1` [Compound 217, (S)—N-(4-amino-3,4-dioxo-1-phenylbutan-2-yl)-1-(2′-fluoro-[1,1′-biphenyl]-4-yl)-3-methyl-1 h-pyrazole-5-carboxamide]: the IC50 at Human Calpain 2/NS1 (Column B) is less than 3 µM; at Human Calpain 9/NS1 (Column C), less than 3 µM; in assay [1] (setting [3]) it was less than 10 µM; in assay [2] (Column E), more than 25 µM; at Human Calpain 1/NS1 (Column A), less than 3 µM.
In the case of `NC(=O)C(=O)C(Cc1ccccc1)NC(=O)c1nsnc1-c1ccc2c(c1)OC(F)(F)O2` (stereo not shown) [Compound 599, N-(4-amino-3,4-dioxo-1-phenylbutan-2-yl)-4-(2,2-difluorobenzo[d][1,3]dioxol-5-yl)-1,2,5-thiadiazole-3-carboxamide], the IC50 on Human Calpain 9/NS1 was less than 3 µM; in assay [1] (setting [4]), more than 25 µM; in assay [2] it was more than 25 µM.
With `NC(=O)C(=O)[C@H](Cc1ccccc1)NC(=O)c1cn(C(F)F)nc1-c1ccccc1` [Compound 379, (S)—N-(4-amino-3,4-dioxo-1-phenylbutan-2-yl)-1-(difluoromethyl)-3-phenyl-1H-pyrazole-4-carboxamide], the IC50 on Human Calpain 9/NS1 is less than 3 µM; in assay [1] (setting [4]), less than 10 µM; in assay [2], less than 10 µM; on Human Calpain 1/NS1, less than 3 µM.
Consider `NC(=O)C(=O)C(Cc1ccccc1)NC(=O)c1cn(C(F)F)nc1-c1cnc2ccccc2c1` (stereo not shown) [Compound 610, N-(4-amino-3,4-dioxo-1-phenylbutan-2-yl)-1-(difluoromethyl)-3-(quinolin-3-yl)-1H-pyrazole-4-carboxamide], for which the IC50 at Human Calpain 2/NS1 was less than 3 µM; at Human Calpain 9/NS1, less than 3 µM; in assay [1] (setting [4]), less than 10 µM; at Human Calpain 1/NS1, less than 3 µM.
As for `NC(=O)C(=O)C(Cc1ccccc1)NC(=O)c1cn(C(F)F)nc1-c1cc(F)cc(F)c1` (stereo not shown) [Compound 523, N-(4-amino-3,4-dioxo-1-phenylbutan-2-yl)-1-(difluoromethyl)-3-(3,5-difluorophenyl)-1H-pyrazole-4-carboxamide], the values for the IC50 (in assay [1] (setting [4]); in assay [2]; on Human Calpain 1/NS1) were 10 to 25 µM, less than 10 µM and less than 3 µM, respectively.
Regarding `Cc1nc(-c2cccc(F)c2)c(C(=O)N[C@@H](Cc2ccccc2)C(=O)C(N)=O)o1` [Compound 254, (S)—N-(4-amino-3,4-dioxo-1-phenylbutan-2-yl)-4-(3-fluorophenyl)-2-methyloxazole-5-carboxamide], the IC50 at Human Calpain 9/NS1 (Column C) is less than 3 µM; in assay [1] (setting [3]), 10 to 25 µM; in assay [2] (Column E) it was less than 10 µM; on Human Calpain 1/NS1 (Column A), less than 3 µM.
`CCn1cc(C(=O)NC(Cc2ccccc2)C(=O)C(N)=O)c(-c2cccc(F)c2)n1` (stereo not shown) [Compound 470, N-(4-amino-3,4-dioxo-1-phenylbutan-2-yl)-1-ethyl-3-(3-fluorophenyl)-1H-pyrazole-4-carboxamide]: the IC50 at Human Calpain 2/NS1 was less than 3 µM; in assay [1] (setting [4]), 10 to 25 µM; in assay [2] it was less than 10 µM; at Human Calpain 1/NS1, less than 3 µM.
`O=C[C@H](Cc1ccccc1)NC(=O)c1ccnn1-c1ccccc1` [Compound 2, (S)—N-(1-oxo-3-phenylpropan-2-yl)-1-phenyl-1H-pyrazole-5-carboxamide]: the IC50 was less than 3 µM at Human Calpain 2/NS1 (Column B), less than 3 µM at Human Calpain 9/NS1 (Column C), 10 to 25 µM in assay [1] (setting [3]) and less than 3 µM at Human Calpain 1/NS1 (Column A).
For `O=C(NC1CC1)C(=O)C(Cc1ccccc1)NC(=O)c1nsnc1-c1ccccc1` (stereo not shown) [Compound 462, N-(4-(cyclopropylamino)-3,4-dioxo-1-phenylbutan-2-yl)-4-phenyl-1,2,5-thiadiazole-3-carboxamide], the IC50 on Human Calpain 2/NS1 is less than 3 µM; on Human Calpain 9/NS1, less than 3 µM; in assay [1] (setting [4]), 10 to 25 µM; at Human Calpain 1/NS1, less than 3 µM.
Consider `NC(=O)C(=O)C(Cc1ccccc1)NC(=O)c1cn(-c2cccc(F)c2)nc1-c1ccccc1` (stereo not shown) [Compound 528, N-(4-amino-3,4-dioxo-1-phenylbutan-2-yl)-1-(3-fluorophenyl)-3-phenyl-1H-pyrazole-4-carb oxamide], for which the IC50 was less than 3 µM at Human Calpain 2/NS1, less than 3 µM on Human Calpain 9/NS1, more than 25 µM in assay [1] (setting [4]) and less than 3 µM on Human Calpain 1/NS1.
On to `NC(=O)C(=O)C(Cc1ccccc1)NC(=O)c1cn(C(F)F)nc1-c1cc2ccccc2cn1` (stereo not shown) [Compound 608, N-(4-amino-3,4-dioxo-1-phenylbutan-2-yl)-1-(difluoromethyl)-3-(isoquinolin-3-yl)-1H-pyrazole-4-carboxamide], for which the IC50 on Human Calpain 2/NS1 was less than 3 µM; on Human Calpain 9/NS1, less than 3 µM; in assay [1] (setting [4]), more than 25 µM; on Human Calpain 1/NS1, less than 3 µM.
Take `NC(=O)C(=O)[C@H](Cc1ccccc1)NC(=O)c1nccn1-c1ccccc1` [Compound 221, (S)—N-(4-amino-3,4-dioxo-1-phenylbutan-2-yl)-1-phenyl-1H-imidazole-2-carboxamide]: the IC50 at Human Calpain 2/NS1 (Column B) was less than 3 µM; at Human Calpain 9/NS1 (Column C) it was less than 3 µM; in assay [1] (setting [3]), more than 25 µM; on Human Calpain 1/NS1 (Column A) it was less than 3 µM.
